Type in all cases: cell-based
Assay [1] concerns Borrelia burgdorferi. Kind of assay: Effect of magnesium concentration on spirochete growth in BSK-H medium. As to conditions: 7.5×10^−2 M vs 7.5×10^−3 M MgCl2, 6% rabbit serum, 6 days, data not shown. The procedure:
To determine the effect of magnesium concentration on spirochete growth, Borrelia burgdorferi were cultured in BSK-H medium with 6% rabbit serum and either 7.5×10^−2 M MgCl2, or 7.5×10^−3 M MgCl2. The spirochetes were incubated in a CO2 incubator at 32° C. with 5% CO2 and 100% humidity for 6 days, at which time spirochete growth was evaluated by dark-field microscopy.

Assay [2] has as its system Borrelia burgdorferi. Kind of assay: Effect of DTT concentration on spirochete growth in BSK-H medium, dark-field microscopy. The procedure: (§1) The cells were cultured for 6 days with different concentration of rabbit serum, DTT and antibiotics, as depicted, and cellular growth was evaluated by direct cell counting of motile spirochetes using dark field microscopy. Each set of data represents three independent experiments (mean±SD). Statistical significance was determined using two-sample paired t-test. The data *p-values<0.05 indicates statistical significance as related to control.
The effect of the addition of a reducing agent, such as DTT, to the culture media was also evaluated. To determine the effect of DTT concentration on spirochete growth, Borrelia burgdorferi were cultured in BSK-H medium with 6%, 12%, and 20% rabbit serum and either 0.145 μg/ml DTT or 100 μg/ml DTT. The spirochetes were incubated in a CO2 incubator at 34° C. with 5% CO2 and 100% humidity for 6 days, at which time spirochete growth was evaluated by dark-field microscopy. […] See, FIG. 2B. […] See, FIG. 2B, p=0.0002.

For assay [3], the system named is Borrelia burgdorferi. Kind of assay: Effect of antibiotic concentration on spirochete growth in BSK-H medium, dark-field microscopy. The procedure: as §1
To determine the effect of antibiotic concentration on spirochete growth, Borrelia burgdorferi were cultured in BSK-H medium containing 12% rabbit serum, 100 μg/ml DTT and one of the following antibiotics: 0.5 μg/ml rifampicin, 50 μg/ml rifampicin, a 5 μg/ml rifampicin disc (resulting in final concentration of 0.4 μg/ml), 50 μg/ml phosphomycin, 100 μg/ml phosphomycin, or the combination of 50 μg/ml rifampicin and 50 μg/ml phosphomycin. The spirochetes were incubated in a CO2 incubator at 34° C. with 5% CO2 and 100% humidity for 6 days, at which time spirochete growth was evaluated by dark-field microscopy. […] See, FIG. 2C.

For the molecule `[Cl-].[Cl-].[Mg+2]` [MgCl2], the spirochete growth entry in assay [1] is given as “No significant differences in spirochete growth”.
With `O[C@H](CS)[C@H](O)CS` (racemic) [DTT, dithiothreitol], the “spirochete yield, 100 μg/ml DTT relative to 0.145 μg/ml DTT” value in assay [2] (BSK-H with 12% rabbit serum, p=0.0002) is listed as “twice as many spirochetes”. The spirochete yields entry in assay [2] (DTT (0.145 or 100 μg/ml) included in BSK-H culture medium, 6 days) was “increased spirochete yields”.
As for `C[C@@H]1O[C@@H]1P(=O)(O)O` [phosphomycin], the spirochete yield result in assay [3] (50 or 100 μg/ml phosphomycin, BSK-H, 12% rabbit serum, 100 μg/ml DTT, 6 days, 34° C.) is given as “significantly decreased spirochete yield”. For the same molecule, in assay [3] (lower concentrations of phosphomycin (e.g., 10 and 50 μg/ml), data not shown), the spirochete yields entry is recorded as “significantly decreased spirochete yields”.

Values taken from patent publication US8697419B2, “Compositions and methods for culturing spirochetes” (Advanced Laboratory Services, Inc., priority 2011, dated 2014).
